Measurements from patent publication US7566808B2, “Management of ophthalmologic disorders, including macular degeneration” (President and Fellows of Harvard College, priority 2004, dated 2009).

System: bovine retinal pigment epithelial membrane system (11-cis-retinol formation)
Test: 11-cis-retinol formation in RPE membranes (IMH activity / RPE65 function)
Format: biochemical
Details: 60 μM, data not shown
Method: A control reaction mixture without any inhibitor was also incubated at room temperature for 15 min. At the end of the 15 min incubation, all-trans-retinol [11-12-^3H2] (0.2 μM) was added to the reaction mixtures (100 mM Tris pH 8.0, […] of RPE protein, 0.2% BSA 100 μM of DPPC, 1 mM of DTT and 0.2 μM all-trans-retinol [11-12-^3H2]) and incubated at room temperature for 30 min. At the end of this 30 minutes of incubation, an aliquot of the reactions were quenched to verify the equal addition of all-trans-retinol [11,12-^3H2] and the effect of these inhibitors on LRAT. After this the control reaction mixture was incubated with atRA (60 & 6 μM), 13cRA (60 & 6 μM) or 4-HPR (60 & 6 μM) for 15 min. Now all the reaction mixtures were incubated with 30 μM of apo-rCRALBP (100 mM Tris pH 8.0, 7.7 μg of RPE protein, 0.2% BSA 100 μm of DPPC, 1 mM of DTT 30 μM apo-rCRALBP and 0.2 μM all-trans-retinol [11-12-^3H2]) at 37° C. for 30 minutes. At the end of this incubation period the 200 μL reaction mixture was quenched by the addition of 750 μL ice cold methanol after which 100 μL of 1M sodium chloride solution was added, and 500 μl hexane (containing butylated hydroxy toluene at 1 mg/mL) was added to effect extraction of the retinoids. The retinoids were analyzed as previously described (27). The amount of 11-cis-retinol formed was used as a measurement of IMH activity. All experiments were performed in triplicate and the average values of these measurements were used for analysis.
A control reaction mixture without any inhibitor was also incubated at room temperature for 15 min. At the end of the 15 min incubation, all-trans-retinol [11-12-^3H2] (0.2 μM) was added to the reaction mixtures (100 mM Tris pH 8.0, 76.7 μg of RPE protein, 0.2% BSA 100 μM of DPPC, 1 mM of DTT and 0.2 μM all-trans-retinol [11-12-^3H2]) and incubated at room temperature for 30 min. […] The retinoids were analyzed as previously described (27). […]

With `CC1=C(/C=C/C(C)=C/C=C/C(C)=C\C(=O)O)C(C)(C)CCC1` [13-cis-retinoic acid, reference compound] the “inhibition of 11-cis-retinol formation, membranes pre-incubated with vitamin A before inhibitor” value was “not susceptible to inhibition”.
